According to patent publication US10329269B2, “Indene derivatives and uses thereof” (MUSC FOUNDATION FOR RESEARCH DEVELOPMENT, priority 2017, dated 2019):
Like-named read-outs stand apart in the source and are kept apart here.

Legend:
Format in all cases: cell-based
MM.1S BzR cells = assay: Bortezomib sensitization, cell viability in PI-resistant MM.1S BzR cells; details: for EC50: Homo sapiens, MM1.S, cell viability after 24 hours
Experimental: (§1) Reference is made to FIG. 1. (A) The structures of novel derivatives E64FC26 and E64FC65 are shown. (B) Proteasome inhibitor (PI) resistant MM.1S BzR cells were treated with the E64FC26 at a concentration of 500 nM and a dose range of the PI bortezomib (Btz). Cell viability was measured after 24 hours of treatment. […] (C) PANC-1 pancreatic cancer cells were treated with the indicated derivative at a final concentration of 1 μM and a dose range of Btz. Cell viability was measured after a 48 hour treatment time. […] (D) Panels of pancreatic, ovarian, glioma, multiple myeloma, and normal cells were treated with E64FC26 and a dose range of the second generation proteasome inhibitor carfilzomib (Crflz) using a protocol similar to that described above for panels (B) and (C). Crflz EC50 values were extrapolated from dose curves conducted in the presence and absence of E64FC26 and a fold-change was calculated. Each data point represents the fold-change, or the degree of Crflz potentiation, for each cell line tested.

[1] = system: PANC-1 pancreatic cancer cells; assay: Panobinostat (HDAC inhibitor) sensitization, cytotoxicity in PANC-1 pancreatic cancer cells; details: PANC-1 cells; for EC50: Homo sapiens; for increase in panobinostat sensitivity (fold): 1 μM compound vs DMSO
Experimental: Reference is made to FIG. 3. (A) In PANC-1 pancreatic cancer cells, the cytotoxicity of each of the indicated HDAC inhibitors was evaluated in the presence and absence of 1 μM E64FC26. EC50 values are shown. (B) Similar experiments as described in (A) were conducted using T98G glioblastoma cells. EC50 values for each of the HDAC inhibitor in the presence and absence of 1 μM E64FC26. (C) Panels of the indicated tumor cell types were treated with a dose range of the HDAC inhibitor panobinostat in the presence and absence of 1 μM E64FC26. EC50 values were extrapolated and the relative effect of E64FC26 on panobinostat sensitivity was calculated. Each data point indicated the fold change in panobinostat EC50 for that particular cell line. (D) An example of full panobinostat dose response curves in PANC-1 pancreatic cancer cells are shown. PANC-1 cells were co-treated with DMSO vehicle control, 1 μM E64FC26, or 1 μM E64FC65.

[2] = system: PANC-1 pancreatic cancer cells; assay: Bortezomib sensitization, cell viability in PANC-1 pancreatic cancer cells; details: PANC-1 cells; for EC50: Homo sapiens, cell viability after 48 hour treatment; for fold increase in Btz sensitivity: compound at 1 μM vs DMSO, 48 hour
Experimental: as §1

[3] = co-treated with 1 μM compound, read-out: panobinostat EC50 in the presence of the compound
[4] = compound at 1 μM, read-out: Btz EC50 in the presence of the compound

| Structure (SMILES) | fold increase in Btz sensitivity (MM.1S BzR cells; 500 nM compound vs DMSO, 24 hours) | EC50 (MM.1S BzR cells; co-treatment with 500 nM compound, read-out: Btz EC50 in cells co-treated with the compound) | EC50 [1, 3] | increase in panobinostat sensitivity (fold) [1] | EC50 [2, 4] | fold increase in Btz sensitivity [2] | EC50 (MM.1S BzR cells; Btz alone (DMSO vehicle), read-out: Btz EC50, control cells treated with DMSO vehicle) | EC50 ([2]; Btz alone (DMSO vehicle), read-out: Btz EC50 in the presence of DMSO vehicle control) | EC50 ([1]; panobinostat alone (DMSO vehicle), read-out: panobinostat EC50 in DMSO treated cells) |
| --- | --- | --- | --- | --- | --- | --- | --- | --- | --- |
| CCCCCCCC/C=C1\C=C(C(F)(F)F)c2cc(O)c(O)cc21 [E64FC26] | 9.7 fold | 4.7 nM | 5.3 nM | 85.5 fold | 9.1 nM | 9.2 fold |  |  |  |
| CC(C)C[C@H](NC(=O)[C@H](Cc1ccccc1)NC(=O)c1cnccn1)B(O)O [Btz, bortezomib, reference compound] |  |  |  |  |  |  | 45.5 nM | 83.5 nM |  |
| Cc1[nH]c2ccccc2c1CCNCc1ccc(/C=C/C(=O)NO)cc1 [panobinostat, reference compound] |  |  |  |  |  |  |  |  | 453 nM |
| CCCCCC/C=C1\C=C(C(F)(F)F)c2cc3c(cc21)OCO3 [E64FC65, (5E)-7-(trifluoromethyl)-5-heptylidene-5H-indeno[5,6-d][1,3]dioxole] |  |  | 1.1 nM | 412 fold | 1.8 nM | 46.4 fold |  |  |  |
